Results reported in ChEMBL document CHEMBL1201862, “PubChem BioAssay data set” (2004).
Active and inactive are the calls of the source.

Columns and labels:
[1] = target: T1, Trace amine-associated receptor 1 (Homo sapiens, UniProt Q96RJ0); test: Fluorescence-based cell-based high throughput dose response assay to identify agonists of the human trace amine associated receptor 1 (TAAR1).; type: functional
T1 sequence (Q96RJ0 whole entry): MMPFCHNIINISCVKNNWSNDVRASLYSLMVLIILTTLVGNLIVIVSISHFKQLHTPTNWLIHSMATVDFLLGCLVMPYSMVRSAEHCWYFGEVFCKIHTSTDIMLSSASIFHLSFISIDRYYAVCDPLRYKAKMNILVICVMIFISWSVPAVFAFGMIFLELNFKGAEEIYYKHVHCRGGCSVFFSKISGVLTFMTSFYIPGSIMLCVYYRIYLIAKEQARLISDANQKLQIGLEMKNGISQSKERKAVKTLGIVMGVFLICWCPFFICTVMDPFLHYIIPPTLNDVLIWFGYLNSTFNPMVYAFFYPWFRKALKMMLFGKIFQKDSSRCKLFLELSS

[2] = target: T1, Trace amine-associated receptor 1; test: Counterscreen for agonists of the human trace amine associated receptor 1 (hTAAR1): Fluorescence-based cell-based high throughput dose response assay to identify hTAAR1 agonist that also desensitize TAAR1 receptor response.; type: functional
cells [3] = type: functional, cell-based
cells [4] = type: functional, cell-based; remark: listed apart in the source
fMet-Leu-Phe receptor = fMet-Leu-Phe receptor (Homo sapiens, UniProt P21462); test: formyl peptide receptor binders – dose response (AID 519); type: functional
Sequence of fMet-Leu-Phe receptor (P21462 whole entry): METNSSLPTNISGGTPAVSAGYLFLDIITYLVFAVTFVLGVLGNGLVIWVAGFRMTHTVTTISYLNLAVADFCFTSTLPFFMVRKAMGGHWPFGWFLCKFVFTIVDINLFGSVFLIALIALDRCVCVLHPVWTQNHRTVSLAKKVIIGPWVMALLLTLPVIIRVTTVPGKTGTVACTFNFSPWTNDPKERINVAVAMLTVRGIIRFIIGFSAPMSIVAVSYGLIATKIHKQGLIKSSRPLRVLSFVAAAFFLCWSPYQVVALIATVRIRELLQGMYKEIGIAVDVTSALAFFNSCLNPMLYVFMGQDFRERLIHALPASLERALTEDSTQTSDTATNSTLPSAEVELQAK

[5] = target: T2, Methionyl-tRNA synthetase, putative (Trypanosoma brucei brucei, UniProt Q38C91); type: functional, Trypanosoma brucei brucei strain 927/4 GUTat10.1
T2 sequence (Q38C91 whole entry): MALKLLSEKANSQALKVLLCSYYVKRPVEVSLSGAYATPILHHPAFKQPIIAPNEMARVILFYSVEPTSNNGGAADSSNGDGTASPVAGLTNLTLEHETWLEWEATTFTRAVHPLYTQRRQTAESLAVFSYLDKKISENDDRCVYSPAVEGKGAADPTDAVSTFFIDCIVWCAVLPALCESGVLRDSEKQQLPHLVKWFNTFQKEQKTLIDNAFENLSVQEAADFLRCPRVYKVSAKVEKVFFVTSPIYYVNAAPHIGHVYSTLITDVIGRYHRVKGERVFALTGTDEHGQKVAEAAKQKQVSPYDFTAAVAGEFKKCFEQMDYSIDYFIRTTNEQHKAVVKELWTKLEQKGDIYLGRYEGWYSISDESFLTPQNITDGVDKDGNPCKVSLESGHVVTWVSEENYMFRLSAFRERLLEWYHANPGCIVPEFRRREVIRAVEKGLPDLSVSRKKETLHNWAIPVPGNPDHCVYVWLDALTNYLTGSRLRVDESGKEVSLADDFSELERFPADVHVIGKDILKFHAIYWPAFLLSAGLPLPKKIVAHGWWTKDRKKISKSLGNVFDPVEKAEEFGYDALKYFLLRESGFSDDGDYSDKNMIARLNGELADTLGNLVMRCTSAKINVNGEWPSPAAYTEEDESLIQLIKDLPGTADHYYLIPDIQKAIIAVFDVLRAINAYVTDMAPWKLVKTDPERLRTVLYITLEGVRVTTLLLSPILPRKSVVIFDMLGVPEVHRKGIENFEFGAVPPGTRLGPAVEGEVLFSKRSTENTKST

[6] = Trypanosoma cruzi growth suppression in host cells – NIH3T3 host cells, beta-gal luminescence, confirmation (AID 2044); type: functional, cell-based;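 further: intracellular parasites grown in NIH/3T3 mouse fibroblasts as host cells; luminescent beta-galactosidase reporter signal from transgenic T. cruzi replicating inside host cells; inhibitors lower the luminescence signal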
[7] = Counterscreen for inhibitors of Trypanosoma brucei methionyl tRNA synthetase (MetRS): Luminescence-based cell-based high throughput dose response assay to identify compounds that are cytotoxic to Jurkat human T lymphocyte cells.; type: functional
[8] = target: T2, Methionyl-tRNA synthetase, putative; type: functional, Trypanosoma brucei brucei strain 927/4 GUTat10.1; remark: listed apart in the source
[9] = NIH3T3 cell viability loss – ATP luminescence, mouse fibroblasts, counter-screen, dose response (AID 2010); type: functional, cell-based;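 further: cells exposed to compound for about 90 hours before reading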
cells [10] = test: cells
[11] = target: Mitogen-activated protein kinase 10 (Homo sapiens, UniProt P53779); test: Dose response biochemical screening assay for inhibitors of c-Jun N-Terminal Kinase 3 (JNK3). [Related pubchem assays: 746 ]
Sequence of Mitogen-activated protein kinase 10 (P53779 whole entry): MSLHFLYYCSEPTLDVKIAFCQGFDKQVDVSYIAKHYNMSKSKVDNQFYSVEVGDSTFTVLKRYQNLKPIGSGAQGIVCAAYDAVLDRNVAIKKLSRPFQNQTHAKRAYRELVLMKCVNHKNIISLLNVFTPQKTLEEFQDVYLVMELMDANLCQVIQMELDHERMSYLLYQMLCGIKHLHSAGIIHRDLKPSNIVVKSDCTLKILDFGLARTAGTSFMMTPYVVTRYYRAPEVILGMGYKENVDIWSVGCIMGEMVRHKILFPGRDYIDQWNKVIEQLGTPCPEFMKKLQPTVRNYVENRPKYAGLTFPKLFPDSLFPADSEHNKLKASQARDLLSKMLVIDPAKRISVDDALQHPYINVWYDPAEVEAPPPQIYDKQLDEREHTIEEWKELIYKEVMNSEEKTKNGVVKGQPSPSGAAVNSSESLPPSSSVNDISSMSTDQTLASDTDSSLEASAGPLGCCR

Major prion protein = Major prion protein (Homo sapiens, UniProt P04156); type: functional, cell-based
[12] = Luminescence-based cell-based high throughput dose response assay to identify activators of the DAF-12 from the parasite S. stercoralis (ssDAF-12).; type: functional
[13] = target: T3, Replicative DNA helicase DnaB (Mycobacterium tuberculosis, UniProt P9WMR3); test: DnaB intein splicing inhibitors, dose response, biochemical, cell-free fluorescence (AID 449749); type: functional
T3 sequence (P9WMR3 whole entry): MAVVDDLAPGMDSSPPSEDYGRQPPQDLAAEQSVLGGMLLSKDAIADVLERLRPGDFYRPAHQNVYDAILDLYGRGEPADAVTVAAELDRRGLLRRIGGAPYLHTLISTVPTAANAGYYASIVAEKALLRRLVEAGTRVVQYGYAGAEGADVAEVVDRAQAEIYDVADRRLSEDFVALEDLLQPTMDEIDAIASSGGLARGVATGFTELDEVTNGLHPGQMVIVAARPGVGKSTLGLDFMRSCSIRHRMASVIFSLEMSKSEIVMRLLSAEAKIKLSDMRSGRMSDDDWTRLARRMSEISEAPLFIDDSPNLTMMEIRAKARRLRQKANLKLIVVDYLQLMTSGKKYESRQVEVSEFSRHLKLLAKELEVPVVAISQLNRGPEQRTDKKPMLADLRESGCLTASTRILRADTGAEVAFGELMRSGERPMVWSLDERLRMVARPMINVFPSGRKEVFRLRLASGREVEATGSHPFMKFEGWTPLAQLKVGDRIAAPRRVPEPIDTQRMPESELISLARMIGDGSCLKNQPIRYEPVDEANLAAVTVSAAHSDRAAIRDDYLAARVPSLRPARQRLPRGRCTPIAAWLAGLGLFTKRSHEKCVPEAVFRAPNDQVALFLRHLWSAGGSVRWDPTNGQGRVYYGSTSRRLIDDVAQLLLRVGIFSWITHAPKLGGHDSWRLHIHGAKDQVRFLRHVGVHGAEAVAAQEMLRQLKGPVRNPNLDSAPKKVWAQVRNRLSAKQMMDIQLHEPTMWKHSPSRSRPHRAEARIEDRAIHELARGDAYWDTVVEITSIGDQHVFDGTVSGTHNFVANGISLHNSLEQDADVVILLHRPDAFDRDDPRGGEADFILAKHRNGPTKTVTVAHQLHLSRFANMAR

HEK293 [14] = test: cells; type: functional, cell-based; settings: Homo sapiens
Protein RecA = target: T4, Protein RecA (Mycobacterium tuberculosis, UniProt P9WHJ3); test: Fluorescence Cell-Free Homogeneous Dose Retest to Identify Inhibitors of RecA-Intein Splicing Activity. [Related pubchem assays (depositor defined):AID2097, AID2223, AID489010, AID492950]; type: functional
T4 sequence (P9WHJ3 whole entry): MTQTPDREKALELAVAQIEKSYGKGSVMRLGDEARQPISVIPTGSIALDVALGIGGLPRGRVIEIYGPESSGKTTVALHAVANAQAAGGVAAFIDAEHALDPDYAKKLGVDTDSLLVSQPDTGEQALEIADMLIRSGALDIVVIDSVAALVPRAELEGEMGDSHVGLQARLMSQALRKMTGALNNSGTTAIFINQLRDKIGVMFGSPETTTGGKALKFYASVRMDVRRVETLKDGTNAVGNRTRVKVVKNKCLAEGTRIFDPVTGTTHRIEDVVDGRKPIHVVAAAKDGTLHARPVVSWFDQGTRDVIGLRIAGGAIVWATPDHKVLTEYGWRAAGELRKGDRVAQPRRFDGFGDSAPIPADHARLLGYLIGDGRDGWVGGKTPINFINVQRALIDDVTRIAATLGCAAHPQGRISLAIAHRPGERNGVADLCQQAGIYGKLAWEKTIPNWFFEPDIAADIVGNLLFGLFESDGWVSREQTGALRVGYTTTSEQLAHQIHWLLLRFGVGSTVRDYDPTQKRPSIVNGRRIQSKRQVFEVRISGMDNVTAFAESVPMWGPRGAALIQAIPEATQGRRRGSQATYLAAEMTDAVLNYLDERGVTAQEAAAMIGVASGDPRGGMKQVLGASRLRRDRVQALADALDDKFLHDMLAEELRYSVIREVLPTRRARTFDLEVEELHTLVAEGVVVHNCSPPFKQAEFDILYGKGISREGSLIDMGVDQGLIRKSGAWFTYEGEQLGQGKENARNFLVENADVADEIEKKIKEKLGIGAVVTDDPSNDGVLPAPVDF

[15] = target: Nucleotide-binding oligomerization domain-containing protein 2 (Homo sapiens, UniProt Q9HC29); test: inhibition of NOD2-driven NF-kB reporter – cell-based, luminescence, uHTS, HEK293 (AID 1566); type: functional
Sequence of Nucleotide-binding oligomerization domain-containing protein 2 (Q9HC29 whole entry, the tested form may be a part): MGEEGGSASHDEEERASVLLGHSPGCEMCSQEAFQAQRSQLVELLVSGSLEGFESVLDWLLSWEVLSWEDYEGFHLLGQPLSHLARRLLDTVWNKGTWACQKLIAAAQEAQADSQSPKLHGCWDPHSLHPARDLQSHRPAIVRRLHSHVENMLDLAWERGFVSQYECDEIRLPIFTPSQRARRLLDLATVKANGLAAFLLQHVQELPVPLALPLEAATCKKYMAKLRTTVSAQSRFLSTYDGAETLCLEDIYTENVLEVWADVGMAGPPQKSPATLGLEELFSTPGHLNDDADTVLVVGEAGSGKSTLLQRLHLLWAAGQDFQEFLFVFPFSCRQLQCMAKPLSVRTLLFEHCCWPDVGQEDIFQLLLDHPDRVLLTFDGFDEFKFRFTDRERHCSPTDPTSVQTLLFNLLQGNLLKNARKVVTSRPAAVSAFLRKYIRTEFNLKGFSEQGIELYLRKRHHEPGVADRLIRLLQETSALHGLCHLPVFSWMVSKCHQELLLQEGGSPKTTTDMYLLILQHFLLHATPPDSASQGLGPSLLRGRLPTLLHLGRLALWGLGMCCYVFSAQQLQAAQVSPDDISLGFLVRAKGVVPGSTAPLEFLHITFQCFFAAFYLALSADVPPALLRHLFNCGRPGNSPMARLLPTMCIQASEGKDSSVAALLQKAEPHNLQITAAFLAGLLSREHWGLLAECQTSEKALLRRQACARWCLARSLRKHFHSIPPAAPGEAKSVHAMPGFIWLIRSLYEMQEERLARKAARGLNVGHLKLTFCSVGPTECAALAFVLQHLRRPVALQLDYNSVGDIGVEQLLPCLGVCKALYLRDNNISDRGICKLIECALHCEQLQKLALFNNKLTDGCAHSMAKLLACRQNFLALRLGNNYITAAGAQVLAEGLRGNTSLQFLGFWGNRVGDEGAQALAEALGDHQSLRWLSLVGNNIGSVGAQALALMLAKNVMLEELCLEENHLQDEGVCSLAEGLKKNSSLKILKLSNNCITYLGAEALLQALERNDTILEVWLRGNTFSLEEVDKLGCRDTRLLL

HEK293 [16] = test: cells; type: functional, cell-based; settings: Homo sapiens; remark: listed apart in the source
HEK293 [17] = test: inhibition of NOD1-driven NF-kB reporter – cell-based, luminescence, uHTS, primary screen (AID 1578); type: functional; settings: Homo sapiens
HEK293 [18] = test: NOD2 signaling inhibitors in MDP-stimulated cells, cell-based, uHTS, luminescence (AID 2001); type: functional; settings: Homo sapiens
HEK293 [19] = test: cells; type: functional, cell-based; settings: Homo sapiens; remark: listed apart in the source

**Q.** What does the source list for `CC1=C(NCCc2ccccc2)CCC1=O`?
**A.** EC50 [1]: 1.16 µM (active); IC50 [2]: 5.79 µM (active); EC50 (cells [3]): > 29.9 µM (inactive); IC50 (cells [4]): > 29.9 µM (inactive)

**Q.** Which Ki (fMet-Leu-Phe receptor) does the source give for `COCCCN1C(=O)C(O)=C(C(=O)c2ccco2)C1c1ccccc1` (stereo unspecified) here?
**A.** 14.5 µM (active)

**Q.** With `O=C(CCNS(=O)(=O)c1ccc(Br)s1)Nc1ccc(Cl)cc1` as the compound, how does the IC50 [5] read?
**A.** 3.53 µM (active)

**Q.** And the EC50 [6]?
**A.** 3.44 µM (active)

**Q.** What about the IC50 [7] of the same compound?
**A.** 83.3 µM (inactive)

**Q.** What about the IC50 [8] of the same compound?
**A.** 1.85 µM (active)

**Q.** What about the EC50 [9] of the same compound?
**A.** > 60 µM (inconclusive)

**Q.** With `CSCCC(Nc1ncnc2ccc(Br)cc12)C(=O)O` (stereo unspecified) as the compound, how does the IC50 (cells [10]) read?
**A.** > 138 µM (inactive)

**Q.** What about the IC50 [11] of the same compound?
**A.** 45 µM (not active)

**Q.** And the IC50 (Major prion protein)?
**A.** 1.91 µM (active)

**Q.** With `COc1ccc2c(C)cc(SCC(=O)c3ccc4c(c3)OCO4)nc2c1` as the compound, how does the EC50 [6] read?
**A.** 1.53 µM (active)

**Q.** And the IC50 [12]?
**A.** > 67.5 µM (inactive)

**Q.** And the EC50 [9]?
**A.** > 60 µM (not active)

**Q.** What does the source list for `S=C(NCCSCc1ccc(Cl)cc1)Nc1ccccc1`?
**A.** IC50 [5]: 8.52 µM (active); IC50 [7]: 83.3 µM (inactive); IC50 [8]: 11.7 µM (inactive)

**Q.** With `Cc1cc(C(=O)CCl)c(C)n1CCc1ccccc1` as the compound, how does the AC50 [13] read?
**A.** 16.9 µM (active)

**Q.** And the EC50 [1]?
**A.** 1.86 µM (active)

**Q.** And the IC50 [2]?
**A.** 9.06 µM (active)

**Q.** What about the EC50 (cells [3]) of the same compound?
**A.** > 29.9 µM (inactive)

**Q.** And the IC50 (cells [4])?
**A.** > 29.9 µM (inactive)

**Q.** What about the IC50 (HEK293 [14]) of the same compound?
**A.** 5.94 µM (active)

**Q.** What about the EC50 (Protein RecA) of the same compound?
**A.** 24.4 µM (active)

**Q.** And the EC50 [15]?
**A.** > 20 µM (inactive)

**Q.** And the IC50 (HEK293 [16])?
**A.** > 20 µM (inactive)

**Q.** And the EC50 (HEK293 [17])?
**A.** 13.1 µM (active)

**Q.** What about the IC50 (HEK293 [18]) of the same compound?
**A.** 13.4 µM (inactive)

**Q.** What about the IC50 (HEK293 [19]) of the same compound?
**A.** 18 µM (active)
